Measured values published in the NIST ThermoML archive (doi:10.1016/j.fluid.2011.05.002).
± gives the expanded uncertainty stated by the source.

What was measured:
[1] = molar heat capacity at constant pressure; conditions: 101.33 kPa, Liquid, Small sample (50 mg) DSC
[2] = for mass density / viscosity: Liquid; for mass density: Vibrating tube method; for viscosity: 101.33 kPa, Capillary tube (Ostwald / Ubbelohde) method; for surface tension liquid-gas: Ring tensiometer

CCCC[n+]1cccc(C)c1.N#C[C-](C#N)C#N [1-butyl-3-methylpyridinium tricyanomethanide]
molar heat capacity at constant pressure ([1]; 298 K): 468 ± 47 J/K/mol
molar heat capacity at constant pressure ([1]; 323 K): 479 ± 48 J/K/mol
mass density ([2]; 283.15 K): 1052.57 ± 1.3 kg/m3
mass density ([2]; 293.15 K): 1045.79 ± 1.3 kg/m3
viscosity ([2]; 295.15 K): 51.42 ± 2.2 mPa·s
surface tension liquid-gas ([2]; 296.05 K): 27.7 ± 0.6 mN/m
viscosity ([2]; 298.15 K): 43.92 ± 1.9 mPa·s
viscosity ([2]; 303.15 K): 34.87 ± 1.5 mPa·s
mass density ([2]; 303.15 K): 1039.12 ± 1.3 kg/m3
surface tension liquid-gas ([2]; 305.75 K): 27.3 ± 0.6 mN/m
viscosity ([2]; 308.15 K): 28.22 ± 1.2 mPa·s
viscosity ([2]; 313.15 K): 23.27 ± 0.98 mPa·s
mass density ([2]; 313.15 K): 1032.55 ± 1.3 kg/m3
surface tension liquid-gas ([2]; 313.75 K): 26.9 ± 0.6 mN/m
surface tension liquid-gas ([2]; 320.65 K): 26.6 ± 0.6 mN/m
viscosity ([2]; 323.15 K): 16.25 ± 0.68 mPa·s
mass density ([2]; 323.15 K): 1026.1 ± 1.3 kg/m3
surface tension liquid-gas ([2]; 329.85 K): 26.3 ± 0.6 mN/m
viscosity ([2]; 333.15 K): 12.19 ± 0.51 mPa·s
mass density ([2]; 333.15 K): 1019.76 ± 1.3 kg/m3
surface tension liquid-gas ([2]; 338.15 K): 26 ± 0.6 mN/m
viscosity ([2]; 343.15 K): 9.56 ± 0.4 mPa·s
mass density ([2]; 343.15 K): 1013.52 ± 1.3 kg/m3
surface tension liquid-gas ([2]; 346.15 K): 25.5 ± 0.5 mN/m
viscosity ([2]; 353.15 K): 7.54 ± 0.31 mPa·s
mass density ([2]; 353.15 K): 1007.34 ± 1.3 kg/m3
surface tension liquid-gas ([2]; 356.15 K): 25.1 ± 0.5 mN/m
viscosity ([2]; 363.15 K): 6.07 ± 0.25 mPa·s
mass density ([2]; 363.15 K): 1001.13 ± 1.3 kg/m3
